{"source": "ChEMBL document CHEMBL5625238", "about": "“Lead generation from N-[benzyl(4-phenylbutyl)carbamoyl]amino acid as a novel LPA1 antagonist for the treatment of systemic sclerosis” (Eur J Med Chem, 2023)", "key": {"[1]": {"molecular_target": "Lysophosphatidic acid receptor 1 (Homo sapiens, UniProt Q92633)", "sequence (Q92633 whole entry)": "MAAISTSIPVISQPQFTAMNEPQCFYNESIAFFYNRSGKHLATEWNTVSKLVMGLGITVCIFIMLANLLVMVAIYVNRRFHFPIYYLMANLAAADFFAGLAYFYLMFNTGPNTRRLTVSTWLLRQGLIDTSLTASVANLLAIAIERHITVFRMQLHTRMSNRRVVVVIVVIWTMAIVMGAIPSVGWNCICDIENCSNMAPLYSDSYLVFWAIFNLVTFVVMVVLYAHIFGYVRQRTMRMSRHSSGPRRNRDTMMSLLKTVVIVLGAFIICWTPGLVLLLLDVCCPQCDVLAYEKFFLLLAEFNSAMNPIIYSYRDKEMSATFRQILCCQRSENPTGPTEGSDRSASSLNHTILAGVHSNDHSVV", "assay": "Antagonist activity at human LPA1 receptor stably expressed in rat RH7777 cells assessed as reduction in LPA-induced intracellular Ca2+ concentration preincubated for 30 mins followed by LPA addition measured by Fluo-4 probe based fluorescence assay"}, "[2]": {"species": "Mus musculus", "assay": "animal or person", "details": "C57BL/6, po, 672 h, read-out: INH", "description": "Anti-fibrotic activity in C57BL/6 mouse model of bleomycin-induced skin fibrosis assessed as inhibition of collagen production by measuring reduction in hydroxyproline content at 2 mg/kg, po administered once daily via gavage for 28 days measured post last dose relative to control"}, "[3]": {"molecular_target": "Lysophosphatidic acid receptor 1 (Mus musculus) (UniProt P61793)", "sequence (P61793 whole entry)": "as the sequence (Q92633 whole entry) above, with I4A, I8S, P22Q, H40Y, I61V, E193D, N194H, I269V, S331N, T335N counted along it", "assay": "In vivo antagonist activity at LPA1 receptor in C57BL/6J mouse assessed as inhibition of LPA-induced histamine release from mast cells at 100 mg/kg, po administered via gavage and measured after 8 hrs by enzyme immunoassay relative to control", "assay_type": "functional, organism-based"}, "[4]": {"molecular_target": "Lysophosphatidic acid receptor 1 (Mus musculus) (UniProt P61793)", "assay": "In vivo antagonist activity at LPA1 receptor in C57BL/6J mouse assessed as inhibition of LPA-induced histamine release from mast cells at 100 mg/kg, po administered via gavage and measured after 1 hr by enzyme immunoassay relative to control", "assay_type": "functional, organism-based"}, "[5]": {"assay": "Plasma concentration in LPA-induced C57BL/6J mouse at 30 mg/kg, po administered via gavage and measured after 8 hrs by LC-MS/MS analysis", "assay_type": "ADME, organism-based"}, "[6]": {"species": "Mus musculus", "assay": "animal or person", "details": "C57BL/6, po, 672 h, read-out: INH", "remark": "listed apart in the source", "description": "Anti-fibrotic activity in C57BL/6 mouse model of bleomycin-induced skin fibrosis assessed as inhibition of collagen production by measuring reduction in hydroxyproline content at 30 mg/kg, po administered twice daily via gavage for 28 days measured post last dose relative to control"}, "[7]": {"assay": "Plasma concentration in LPA-induced C57BL/6J mouse at 100 mg/kg, po administered via gavage and measured after 8 hrs by LC-MS/MS analysis", "assay_type": "ADME, organism-based"}, "[8]": {"system": "Mus musculus", "assay": "Anti-fibrotic activity in po dosed C57BL/6 mouse model of bleomycin-induced skin fibrosis assessed as inhibition of collagen production by measuring reduction in hydroxyproline content administered twice daily via gavage for 28 days measured post last dose", "assay_type": "functional, organism-based", "details": "dose 10-100 mg/kg, time 28.0 day"}, "[9]": {"molecular_target": "Lysophosphatidic acid receptor 1 (Mus musculus) (UniProt P61793)", "assay": "In vivo antagonist activity at LPA1 receptor in C57BL/6J mouse assessed as inhibition of LPA-induced histamine release from mast cells at 30 mg/kg, po administered via gavage and measured after 8 hrs by enzyme immunoassay relative to control", "assay_type": "functional, organism-based"}, "[10]": {"assay": "Plasma concentration in LPA-induced C57BL/6J mouse at 10 mg/kg, po administered via gavage and measured after 1 hr by LC-MS/MS analysis", "assay_type": "ADME, organism-based"}, "[11]": {"species": "Mus musculus", "assay": "animal or person", "details": "C57BL/6, po, 672 h, read-out: INH", "remark": "listed apart in the source", "description": "Anti-fibrotic activity in C57BL/6 mouse model of bleomycin-induced skin fibrosis assessed as inhibition of collagen production by measuring reduction in hydroxyproline content at 10 mg/kg, po administered twice daily via gavage for 28 days measured post last dose relative to control"}, "[12]": {"molecular_target": "Lysophosphatidic acid receptor 1 (Mus musculus) (UniProt P61793)", "assay": "In vivo antagonist activity at LPA1 receptor in C57BL/6J mouse assessed as inhibition of LPA-induced histamine release from mast cells at 30 mg/kg, po administered via gavage and measured after 4 hrs by enzyme immunoassay relative to control", "assay_type": "functional, organism-based"}, "[13]": {"molecular_target": "Lysophosphatidic acid receptor 1 (Mus musculus) (UniProt P61793)", "assay": "In vivo antagonist activity at LPA1 receptor in C57BL/6J mouse assessed as inhibition of LPA-induced histamine release from mast cells at 10 mg/kg, po administered via gavage and measured after 4 hrs by enzyme immunoassay relative to control", "assay_type": "functional, organism-based"}, "[14]": {"assay": "Plasma concentration in LPA-induced C57BL/6J mouse at 30 mg/kg, po administered via gavage and measured after 4 hrs by LC-MS/MS analysis", "assay_type": "ADME, organism-based"}, "[15]": {"assay": "Plasma concentration in LPA-induced C57BL/6J mouse at 10 mg/kg, po administered via gavage and measured after 4 hrs by LC-MS/MS analysis", "assay_type": "ADME, organism-based"}, "[16]": {"assay": "Plasma concentration in LPA-induced C57BL/6J mouse at 30 mg/kg, po administered via gavage and measured after 1 hr by LC-MS/MS analysis", "assay_type": "ADME, organism-based"}, "[17]": {"assay": "Plasma concentration in LPA-induced C57BL/6J mouse at 100 mg/kg, po administered via gavage and measured after 4 hrs by LC-MS/MS analysis", "assay_type": "ADME, organism-based"}, "[18]": {"assay": "Plasma concentration in LPA-induced C57BL/6J mouse at 100 mg/kg, po administered via gavage and measured after 1 hr by LC-MS/MS analysis", "assay_type": "ADME, organism-based"}, "[19]": {"species": "Mus musculus", "assay": "animal or person", "details": "C57BL/6, po, 672 h, read-out: INH", "remark": "listed apart in the source", "description": "Anti-fibrotic activity in C57BL/6 mouse model of bleomycin-induced skin fibrosis assessed as inhibition of collagen production by measuring reduction in hydroxyproline content at 100 mg/kg, po administered twice daily via gavage for 28 days measured post last dose relative to control"}, "[20]": {"molecular_target": "Lysophosphatidic acid receptor 1 (Mus musculus) (UniProt P61793)", "assay": "In vivo antagonist activity at LPA1 receptor in C57BL/6J mouse assessed as inhibition of LPA-induced histamine release from mast cells at 10 mg/kg, po administered via gavage and measured after 8 hrs by enzyme immunoassay relative to control", "assay_type": "functional, organism-based"}, "[21]": {"system": "Mus musculus", "assay": "Anti-hypertrophic activity in po dosed C57BL/6 mouse model of bleomycin-induced skin fibrosis assessed as reduction in skin thickness administered twice daily via gavage for 28 days measured post last dose by caliper method", "assay_type": "functional, organism-based", "details": "dose 10-100 mg/kg, time 28.0 day"}, "[22]": {"molecular_target": "Lysophosphatidic acid receptor 1 (Mus musculus) (UniProt P61793)", "assay": "In vivo antagonist activity at LPA1 receptor in C57BL/6J mouse assessed as inhibition of LPA-induced histamine release from mast cells at 30 mg/kg, po administered via gavage and measured after 1 hr by enzyme immunoassay relative to control", "assay_type": "functional, organism-based"}, "[23]": {"molecular_target": "Lysophosphatidic acid receptor 1 (Mus musculus) (UniProt P61793)", "assay": "In vivo antagonist activity at LPA1 receptor in C57BL/6J mouse assessed as inhibition of LPA-induced histamine release from mast cells at 100 mg/kg, po administered via gavage and measured after 4 hrs by enzyme immunoassay relative to control", "assay_type": "functional, organism-based"}, "[24]": {"assay": "Plasma concentration in LPA-induced C57BL/6J mouse at 10 mg/kg, po administered via gavage and measured after 8 hrs by LC-MS/MS analysis", "assay_type": "ADME, organism-based"}, "[25]": {"molecular_target": "Lysophosphatidic acid receptor 1 (Mus musculus) (UniProt P61793)", "assay": "In vivo antagonist activity at LPA1 receptor in C57BL/6J mouse assessed as inhibition of LPA-induced histamine release from mast cells at 10 mg/kg, po administered via gavage and measured after 1 hr by enzyme immunoassay relative to control", "assay_type": "functional, organism-based"}}}
{"compound": "COc1cc(CN(CCCCc2ccccc2)C(=O)NC2(C(=O)O)CCCC2)cc(OC)c1C", "values": [{"measurement": "IC50", "setting": "[1]", "value": 1.79, "unit": "µM"}]}
{"compound": "COc1cc(CN(CCCCc2ccccc2)C(=O)NC2(C(=O)O)CC2)cc(OC)c1C", "values": [{"measurement": "IC50", "setting": "[1]", "value": 2.75, "unit": "µM"}]}
{"compound": "C[C@]12C=CC(=O)C=C1CC[C@@H]1[C@@H]2C(=O)C[C@@]2(C)[C@H]1CC[C@]2(O)C(=O)CO", "note": "[PREDNISONE]", "values": [{"measurement": "inhibition in vivo at 2 mg/kg", "setting": "[2]", "value": 63, "unit": "%"}]}
{"compound": "COc1cc([C@@H](C)N(CCCCCc2ccccc2)C(=O)NC2(C(=O)O)CC(F)(F)C2)cc(OC)c1C", "values": [{"measurement": "IC50", "setting": "[1]", "value": 0.586, "unit": "µM"}]}
{"compound": "COc1cc(CN(CCCCc2ccccc2)C(=O)NC(C)(C)C(=O)O)cc(OC)c1C", "values": [{"measurement": "IC50", "setting": "[1]", "value": 2.14, "unit": "µM"}]}
{"compound": "COc1cc([C@H](C)N(CCCCc2ccccc2)C(=O)NC2(C(=O)O)CC(F)(F)C2)cc(OC)c1C", "values": [{"measurement": "IC50", "setting": "[1]", "value": 0.47, "unit": "µM"}]}
{"compound": "COc1cc(CN(CCCCc2ccccc2)C(=O)NC2(C(=O)O)CCCCC2)cc(OC)c1C", "values": [{"measurement": "IC50", "setting": "[1]", "value": 2.15, "unit": "µM"}]}
{"compound": "COc1cc([C@@H](C)N(CCCCc2ccccc2)C(=O)NC2(C(=O)O)CC(F)(F)C2)cc(OC)c1C", "values": [{"measurement": "inhibition", "setting": "[3]", "value": 77, "unit": "%"}, {"measurement": "inhibition", "setting": "[4]", "value": 95, "unit": "%"}, {"measurement": "concentration at 8 h", "setting": "[5]", "value": 0.596, "unit": "µg/mL"}, {"measurement": "inhibition in vivo at 30 mg/kg", "setting": "[6]", "value": 49, "unit": "%"}, {"measurement": "concentration at 8 h", "setting": "[7]", "value": 2.46, "unit": "µg/mL"}, {"measurement": "inhibition", "setting": "[8]", "value": "Dose-Dependent Effect"}, {"measurement": "inhibition", "setting": "[9]", "value": 44, "unit": "%"}, {"measurement": "concentration at 1 h", "setting": "[10]", "value": 0.892, "unit": "µg/mL"}, {"measurement": "inhibition in vivo at 10 mg/kg", "setting": "[11]", "value": 22, "unit": "%"}, {"measurement": "inhibition", "setting": "[12]", "value": 66, "unit": "%"}, {"measurement": "inhibition", "setting": "[13]", "value": 36, "unit": "%"}, {"measurement": "concentration at 4 h", "setting": "[14]", "value": 0.805, "unit": "µg/mL"}, {"measurement": "concentration at 4 h", "setting": "[15]", "value": 0.252, "unit": "µg/mL"}, {"measurement": "concentration at 1 h", "setting": "[16]", "value": 4.24, "unit": "µg/mL"}, {"measurement": "concentration at 4 h", "setting": "[17]", "value": 7.16, "unit": "µg/mL"}, {"measurement": "concentration at 1 h", "setting": "[18]", "value": 12.1, "unit": "µg/mL"}, {"measurement": "inhibition in vivo at 100 mg/kg", "setting": "[19]", "value": 77, "unit": "%"}, {"measurement": "inhibition", "setting": "[20]", "value": 2, "unit": "%"}, {"measurement": "Activity", "setting": "[21]", "value": "Dose-Dependent Effect"}, {"measurement": "inhibition", "setting": "[22]", "value": 94, "unit": "%"}, {"measurement": "inhibition", "setting": "[23]", "value": 94, "unit": "%"}, {"measurement": "concentration at 8 h", "setting": "[24]", "value": 0.175, "unit": "µg/mL"}, {"measurement": "inhibition", "setting": "[25]", "value": 58, "unit": "%"}]}
{"compound": "COc1cc([C@@H](C)N(CCCc2ccccc2)C(=O)NC2(C(=O)O)CC(F)(F)C2)cc(OC)c1C", "values": [{"measurement": "IC50", "setting": "[1]", "value": 0.0514, "unit": "µM"}]}
{"compound": "COc1cc(CN(CCCCc2ccccc2)C(=O)N[C@H](CC(C)C)C(=O)O)cc(OC)c1C", "values": [{"measurement": "IC50", "setting": "[1]", "value": 3.66, "unit": "µM"}]}
